Test results from patent US4293549A, “Quinolinyl guanidines having antiinflammatory, analgesic or antipyretic activity” (Leo Pharmaceutical Products Ltd. A/S (Lovens Kemiske Fabrik, priority 1977, dated 1981).

What was measured:
[1] = system: stomachs; test: Gastro ulcerogenic activity in rats; assay type: in vivo; conditions: 24 hrs; for Mean severity: scale 0=no lesion to +4=perforation
Method: Rats fasted for 9 hrs before treatment were given different doses of the compounds. 24 hrs later the animals were killed, the stomachs were removed, opened along the lesser curvature and gross examined for the presence of lesions and their severity. The severity was assessed according to an arbitrary scale from 0=no lesion to +4=perforation.

[2] = system: carrageenin induced edema; test: Inhibition of carrageenin edema in rats; assay type: in vivo; conditions: 1 hr before carrageenin
Method: Inhibitory activity toward carrageenin induced edema was assessed in rats using the technique of Winter C. A., Risley E. A., Nuss C. […] The compounds were orally administered suspended in 0.5% carboxymethylcellulose to 18 hrs fasting animals, 1 hr before the injection of carrageenin.

[3] = system: adjuvant induced arthritis; test: Inhibition of adjuvant induced arthritis in rats; assay type: in vivo
From the text: The compounds were orally administered suspended in 0.5% carboxymethylcellulose, daily, from the day of adjuvant injection to 28 days later.

[4] = Acute toxicity in mice after oral administration; conditions: mouse, in vivo, p.os, mortality assessed eight days after administration, read-out: LD50 (with confidence limits)
Method: The acute toxicity was determined in mice after oral administration. The mortality was assessed eight days after the administration and the LD50 (dose causing the death of 50% of the animals treated) was calculated according to the statistical method of Litchfield and Wilcoxon (J.Pharmacol.Exp.Ther. 96, 99, (1949)).

[5] = system: pain threshold; test: Analgetic effect in rats (Randall and Selitto); assay type: in vivo; conditions: 2 hrs after administration
[6] = target: T1, prostaglandin synthetase (Bos taurus, UniProt O62664); test: Inhibition of prostaglandin synthetase (bovine seminal vesicle homogenate); assay type: biochemical; conditions: lyophilized high speed precipitate of bovine seminal vesicle homogenate
T1 construct: lyophilized high speed precipitate of bovine seminal vesicle homogenate as enzyme; from tissue; host or cells: bovine seminal vesicle homogenate, lyophilized high speed precipitate
T1 sequence (O62664 25-600): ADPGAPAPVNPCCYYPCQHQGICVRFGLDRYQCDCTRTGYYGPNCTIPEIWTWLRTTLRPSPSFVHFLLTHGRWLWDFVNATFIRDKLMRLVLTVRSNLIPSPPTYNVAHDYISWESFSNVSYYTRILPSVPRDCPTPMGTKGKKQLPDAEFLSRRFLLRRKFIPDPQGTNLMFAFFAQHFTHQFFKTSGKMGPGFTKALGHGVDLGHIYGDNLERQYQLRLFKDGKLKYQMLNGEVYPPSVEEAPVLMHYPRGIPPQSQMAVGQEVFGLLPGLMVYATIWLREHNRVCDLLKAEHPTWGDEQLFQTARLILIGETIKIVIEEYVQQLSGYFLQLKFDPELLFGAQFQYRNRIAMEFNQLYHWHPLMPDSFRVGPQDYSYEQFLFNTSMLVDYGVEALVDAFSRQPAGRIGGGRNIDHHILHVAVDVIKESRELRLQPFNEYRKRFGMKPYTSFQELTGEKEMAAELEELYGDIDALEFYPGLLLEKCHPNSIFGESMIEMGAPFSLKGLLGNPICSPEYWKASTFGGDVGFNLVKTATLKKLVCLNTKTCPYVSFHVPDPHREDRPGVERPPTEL

[7] = Antipyretic effect in rats; assay type: in vivo; conditions: over 180 min
Method: The compounds were orally administered and the antipyretic index evaluated over 180 min. of the experiment.

COc1ccc2c(c1)c(CC(=O)O)c(C)n2C(=O)c1ccc(Cl)cc1 [Indomethacin, reference compound]
% with lesions ([1]; oral dose 5 mg/kg): 20% | Mean severity ([1]; oral dose 5 mg/kg): 1.3 | % with lesions ([1]; oral dose 10 mg/kg): 70% | Mean severity ([1]; oral dose 10 mg/kg): 2.8 | % Inhibition 3 hrs after carrageenin ([2]; oral dose 0.5 mg/kg): 34% | % Inhibition 3 hrs after carrageenin ([2]; oral dose 1 mg/kg): 42% | % Inhibition 3 hrs after carrageenin ([2]; oral dose 10 mg/kg): 65% | % Inhibition of the swelling, 18th day, primary ([3]; daily oral dose 0.3 mg/kg): 20.3% | % Inhibition of the swelling, 18th day, secondary ([3]; daily oral dose 0.3 mg/kg): 13.5% | % Inhibition of the swelling, 28th day, primary ([3]; daily oral dose 0.3 mg/kg): 25.9% | % Inhibition of the swelling, 28th day, secondary ([3]; daily oral dose 0.3 mg/kg): 29.7% | % Inhibition of the swelling, 18th day, primary ([3]; daily oral dose 1 mg/kg): 62.4% | % Inhibition of the swelling, 18th day, secondary ([3]; daily oral dose 1 mg/kg): 66.2% | % Inhibition of the swelling, 28th day, primary ([3]; daily oral dose 1 mg/kg): 80.5% | % Inhibition of the swelling, 28th day, secondary ([3]; daily oral dose 1 mg/kg): 76.8% | LD50 at 192 h [4]: 23 mg/kg | Increase of pain threshold ([5]; oral dose 1 mg/kg): 19 mmHg | Increase of pain threshold ([5]; oral dose 3 mg/kg): 34 mmHg

Cc1cc(/N=C(\Nc2nccs2)NC2CCCCC2)c2ccccc2n1 [SR 1368, N-Cyclohexyl-N"-4-(2-methylquinolyl)-N'-2-thiazolylguanidine]
IC50 [6]: 2.46 µM | % with lesions ([1]; oral dose 25 mg/kg): 0% | Mean severity ([1]; oral dose 25 mg/kg): 0 | % with lesions ([1]; oral dose 50 mg/kg): 20% | Mean severity ([1]; oral dose 50 mg/kg): 0.9 | % with lesions ([1]; oral dose 100 mg/kg): 40% | Mean severity ([1]; oral dose 100 mg/kg): 1.7 | % Inhibition 3 hrs after carrageenin ([2]; oral dose 25 mg/kg): 40% | % Inhibition 3 hrs after carrageenin ([2]; oral dose 50 mg/kg): 62% | % Inhibition 3 hrs after carrageenin ([2]; oral dose 100 mg/kg): 71% | Antipyretic index ([7]; oral dose 25 mg/kg): 2.2 | Antipyretic index ([7]; oral dose 50 mg/kg): 5.6 | % Inhibition of the swelling, 18th day, primary ([3]; daily oral dose 5 mg/kg): 23.5% | % Inhibition of the swelling, 18th day, secondary ([3]; daily oral dose 5 mg/kg): 14.9% | % Inhibition of the swelling, 28th day, primary ([3]; daily oral dose 5 mg/kg): 21.4% | % Inhibition of the swelling, 28th day, secondary ([3]; daily oral dose 5 mg/kg): 32.1% | % Inhibition of the swelling, 18th day, primary ([3]; daily oral dose 10 mg/kg): 29.2% | % Inhibition of the swelling, 18th day, secondary ([3]; daily oral dose 10 mg/kg): 54.4% | % Inhibition of the swelling, 28th day, primary ([3]; daily oral dose 10 mg/kg): 42.7% | % Inhibition of the swelling, 28th day, secondary ([3]; daily oral dose 10 mg/kg): 68.7% | % Inhibition of the swelling, 18th day, primary ([3]; daily oral dose 30 mg/kg): 44.2% | % Inhibition of the swelling, 18th day, secondary ([3]; daily oral dose 30 mg/kg): 53.2% | % Inhibition of the swelling, 28th day, primary ([3]; daily oral dose 30 mg/kg): 69.4% | % Inhibition of the swelling, 28th day, secondary ([3]; daily oral dose 30 mg/kg): 69.2% | % Inhibition of the swelling, 18th day, primary ([3]; daily oral dose 60 mg/kg): 51.6% | % Inhibition of the swelling, 18th day, secondary ([3]; daily oral dose 60 mg/kg): 73.4% | % Inhibition of the swelling, 28th day, primary ([3]; daily oral dose 60 mg/kg): 74.2% | % Inhibition of the swelling, 28th day, secondary ([3]; daily oral dose 60 mg/kg): 82.6% | LD50 at 192 h [4]: > 1000 mg/kg | Increase of pain threshold ([5]; oral dose 10 mg/kg): 12 mmHg | Increase of pain threshold ([5]; oral dose 30 mg/kg): 31 mmHg | Increase of pain threshold ([5]; oral dose 90 mg/kg): 68 mmHg
